Source: patent publication US20100048564A1, “FUSED BICYCLIC HETEROARYL DERIVATIVE” (DAIICHI SANKYO COMPANY, LIMITED, priority 2007, published 2010)
Read-outs that look alike come from different tables or passages of the source.

Experiments:
Rat white adipocytes [1] = test: Adipocyte differentiation inhibition test (Test Example 3); type: cell-based; settings: with Compound A 3.3 nM, 5 days, Oil Red O ABS550, N.D. denotes not calculable; for IC50: Adipocyte, 120 h
Procedure: (§1) Rat white adipocytes included in a white adipocyte culture kit purchased from Primary Cell Co., Ltd. were subjected to this test. A medium included in the white adipocyte culture kit purchased from Primary Cell Co., Ltd. was used as a growth medium or a differentiation-inducing medium.
(§2) The whole of the transportation medium was extracted immediately after the arrival of the purchased cells. The growth medium was added in an amount of 5 ml(/25 cm^2-flask), and the cells were cultured for one day. Thereafter, a cell suspension (83,000 cells/mL) was prepared using the growth medium. The cell suspension was dispensed to a 96-well type-I collagen-coated microplate (Becton, Dickinson and Company) at 5,000 to 6,000 cells/well (60 μL/well). A well to which only the growth medium not containing cells was dispensed (blank well) was provided as a blank group in each plate.
3) For the negative control group, DMSO diluted 20-fold with the differentiation-inducing medium was added at 3 μL/well (final DMSO concentration: 0.1% (v/v)) to the wells into which the cells were seeded.
(§3) After culturing for five days, the whole of the differentiation-inducing medium was removed from each well, and 60 μL of a 10% (v/v) formaldehyde solution (fixative solution) was added to each well. The cells were incubated at room temperature for 20 minutes. The whole of the fixative solution was removed and 60 μL of a 0.2% (v/v) Triton X-100 solution (Sigma) was dispensed to each well. The cells were incubated at room temperature for five minutes. The whole of the Triton X-100 solution was removed. A fat stain was prepared by dissolving Oil Red 0 (Sigma) in a 60% (v/v) isopropanol solution at 0.3% (w/v), and 60 μL of the fat stain was dispensed to each well. The cells were incubated at room temperature for 10 minutes. The whole of the fat stain was removed, and then 60 μL of a 60% (v/v) isopropanol solution was dispensed and removed. Thus, each well was washed twice. Thereafter, DMSO was added to each well at 100 μL per well, followed by stirring at room temperature for five minutes. […] The degree of adipocyte differentiation (%) of the test compound-added group was calculated assuming that the measured ABS550 of the positive control group was 100% and the measured ABS550 of the negative control group was 0.
N.D. denotes not calculable.

Rat white adipocytes [2] = test: Adipocyte differentiation promotion test (Test Example 4); type: cell-based; settings: for EC50: 120 h
Procedure: as §1
as §2, with “(SUMITOMO BAKELITE Co., Ltd.)” for “(Becton, Dickinson and Company)”, “5,000” for “5,000 to 6,000”
Further, 1) for the test compound-added group, a 100 μM solution of the test compound in DMSO was diluted 20-fold with the differentiation-inducing medium; this was added at 3 μL/well (final test compound concentration: 100 nM, final DMSO concentration: 0.1% (v/v)) to the wells into which the cells were seeded. […] 3) For the negative control group, DMSO diluted 20-fold with the differentiation-inducing medium was added at 3 μL/well (final DMSO concentration: 0.1% (v/v)) to the wells into which the cells were seeded.
as §3

[3] = biological target: T1, GAL4-PPARγ chimeric receptor (Homo sapiens, UniProt P37231); test: Measurement of PPARγ activation effect/modulator activity, GAL4-PPARγ reporter assay in COS-7 cells (Test Example 5); type: cell-based; settings: for Emax: COS-7
T1 construct: containing amino acids 175 to 475 of human PPARγ and a stop codon at the carboxy end; expressed in transfected cells; host or cells: COS-7 (monkey kidney) cells, transfected with pM-PPARγ and pFR-Luc
T1 sequence (P37231 with tags, fused parts or gaps): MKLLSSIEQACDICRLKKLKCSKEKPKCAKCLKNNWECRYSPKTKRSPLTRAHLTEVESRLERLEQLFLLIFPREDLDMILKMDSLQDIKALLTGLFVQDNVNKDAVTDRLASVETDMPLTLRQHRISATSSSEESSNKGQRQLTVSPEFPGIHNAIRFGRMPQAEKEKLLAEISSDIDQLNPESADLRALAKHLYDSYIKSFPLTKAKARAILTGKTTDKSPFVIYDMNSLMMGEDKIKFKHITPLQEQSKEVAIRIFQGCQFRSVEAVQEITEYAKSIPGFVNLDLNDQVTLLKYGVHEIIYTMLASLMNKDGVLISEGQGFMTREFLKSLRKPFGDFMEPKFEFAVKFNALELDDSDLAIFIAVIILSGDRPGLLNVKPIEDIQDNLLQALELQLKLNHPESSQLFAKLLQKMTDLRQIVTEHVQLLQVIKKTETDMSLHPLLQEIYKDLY
Procedure: The details will be shown below.
The plasmid is a gene that can express a GAL4-PPARγ chimeric receptor in mammalian cells.
The previously acquired plasmid pM-PPARγ and the plasmid pFR-Luc purchased from Stratagene Cloning Systems, Inc. were dissolved in deionised water at a concentration of 1 mg/mL each.
On the following day, the cells were harvested by trypsin treatment, suspended in phenol red-free Dulbecco's modified Eagle's medium containing […] 10% fetal bovine serum, seeded into a white 96-well plate (manufactured by Costar) using the medium in a volume of 95 μL per well, and cultured overnight.
The test compound was dissolved in dimethyl sulfoxide at a concentration of 30 mM. […] Dimethyl sulfoxide was prepared for the control group. Rosiglitazone dissolved in dimethyl sulfoxide at a concentration of 30 mM was prepared for the positive control group. They were diluted 150-fold with the medium, and 5 μL of the dilution was added to the wells in which the cells were grown. The concentrations of the test compound treating the cells ranged from 10 μM to 0.006 nM. After the addition, the cells were cultured overnight.
On the following day, the medium was removed, and Luc Lite (manufactured by PerkinElmer Inc.) was prepared according to the attached document and added at 50 microliters per well. The plates with cells in the Luc Lite was stirred for about 30 minutes. The amount of luminescence in each well was measured as luciferase activity using Analyst (Molecular Devices) for 0.5 second. A dose-dependent curve was drawn.

[4] = Adipocyte, rat white adipocytes, test compound alone, 5 days, Oil Red O ABS550, read-out: EC50
[5] = Rattus norvegicus, degree of adipocyte differentiation, positive control (Compound A 3.3 nM) 100%, negative control 0, read-out: Emax (%)
[6] = maximum luciferase activity, positive control (Rosiglitazone) 100%, control 0%, read-out: Emax (%)
[7] = COS-7 cells with pM-PPARγ and pFR-Luc, concentration represented by Emax/2, read-out: EC50

Compound | IC50 (Rat white adipocytes [1]) | EC50 (Rat white adipocytes [2]; [4]) | Emax [3, 6] | EC50 [3, 7] | melting point | Imax (%) (Rat white adipocytes [1]) | Emax (Rat white adipocytes [2]; [5]) | Emax (Rat white adipocytes [2]; Rattus norvegicus, Adipocyte) | EC50 (Rat white adipocytes [2]; Rattus norvegicus, Adipocyte) | EC50 [3] | Emax [3]
Cl.Cn1c(COc2cccc(C(=O)O)c2)nc2ccc(Oc3cccc(F)c3)cc21 [Example 8, 3-{[6-(3-Fluorophenoxy)-1-methyl-1H-benzimidazol-2-yl]methoxy}benzoic acid hydrochloride] | 53 nM | 7.4 nM | 91% | 4.74e+06 pM | – | −29% | 75% | – | – | – | –
Cl.Cn1c(COc2cccc(C(=O)O)c2)nc2ccc(Oc3ccc(F)c(Cl)c3)cc21 [Example 12, 3-{[6-(3-Chloro-4-fluorophenoxy)-1-methyl-1H-benzimidazol-2-yl]methoxy}benzoic acid hydrochloride] | – | 5.2 nM | 60.2% | 39700 pM | – | – | 82% | – | – | – | –
Cl.Cn1c(COc2cccc(C(=O)O)c2)nc2ccc(Oc3ccccc3)cc21 [Example 14, 3-[(1-Methyl-6-phenoxy-1H-benzimidazol-2-yl)methoxy]benzoic acid hydrochloride] | – | – | – | – | – | – | – | 56% | 20 nM | 845000 pM | 89.6%
Cl.Cl.Cn1c(COc2cccc(C(=O)O)c2)nc2ccc(Oc3ccccc3)nc21 [Example 16, 3-[(3-Methyl-5-phenoxy-3H-imidazo[4,5-b]pyridin-2-yl)methoxy]benzoic acid dihydrochloride] | – | 64 nM | 60.9% | 550000 pM | – | – | 71% | – | – | – | –

Further molecules by falling EC50 (Rat white adipocytes [2]; [4]), results first:

IC50 (Rat white adipocytes [1]) | EC50 (Rat white adipocytes [2]; [4]) | Emax [3, 6] | EC50 [3, 7] | melting point | Compound | Imax (%) (Rat white adipocytes [1]) | Emax (Rat white adipocytes [2]; [5]) | Emax (Rat white adipocytes [2]; Rattus norvegicus, Adipocyte) | EC50 (Rat white adipocytes [2]; Rattus norvegicus, Adipocyte) | EC50 [3] | Emax [3]
45 nM | 6.6 nM | 46.5% | 67000 pM | – | Cl.Cn1c(COc2cccc(C(=O)O)c2)nc2ccc(Oc3ccc(Cl)c(F)c3)cc21 [Example 10, 3-{[6-(4-Chloro-3-fluorophenoxy)-1-methyl-1H-benzimidazol-2-yl]methoxy}benzoic acid hydrochloride] | −29% | 78% | – | – | – | –
12 nM | 4.2 nM | 73.3% | 299000 pM | 235 to 239 °C | Cc1cc(Oc2ccc3nc(COc4cccc(C(=O)O)c4)n(C)c3c2)cc(C)c1N.Cl.Cl [Example 2, 3-{[6-(4-Amino-3,5-dimethylphenoxy)-1-methyl-1H-benzimidazol-2-yl]methoxy}benzoic acid dihydrochloride] | −33% | 73% | – | – | – | –
